Reference: patent US20160287589A1, “SUBSTITUTED-IMIDAZOPYRIDAZINES” (BAYER PHARMA AKTIENGESELLSCHAFT, priority 2013, published 2016)

Tests used:
MKNK1 [1] = target: T1, MKNK1 (Homo sapiens, UniProt Q9BUB5, T385D); test: MKNK1 kinase assay (MKNK1 TR-FRET assay); type: biochemical; details: 10 μM ATP, 15 min preincubation
T1 construct: GST (N); purchased Carna Biosciences 02-145; host or cells: insect cells (baculovirus expression system)

MKNK1 [2] = target: T1, MKNK1; test: MKNK1 kinase high ATP assay (TR-FRET-based); type: biochemical; details: 2 mM ATP, 15 min preincubation
Method in brief: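 TR-FRET read-out (anti-phospho-S6 Ser236 antibody, Eu/XL665) of biotin-peptide phosphorylation (0.06 μM) at high ATP (2 mM final). Enzyme was GST-MKNK1 full length, T344D, pre-bound to compound for 15 min before a 30 min reaction at 22 °C, pH 7.5. Inhibition scaled between no-inhibitor (0%) and no-enzyme (100%) wells.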

T1 sequence (Q9BUB5 1-424 isoform Q9BUB5-2 T344D): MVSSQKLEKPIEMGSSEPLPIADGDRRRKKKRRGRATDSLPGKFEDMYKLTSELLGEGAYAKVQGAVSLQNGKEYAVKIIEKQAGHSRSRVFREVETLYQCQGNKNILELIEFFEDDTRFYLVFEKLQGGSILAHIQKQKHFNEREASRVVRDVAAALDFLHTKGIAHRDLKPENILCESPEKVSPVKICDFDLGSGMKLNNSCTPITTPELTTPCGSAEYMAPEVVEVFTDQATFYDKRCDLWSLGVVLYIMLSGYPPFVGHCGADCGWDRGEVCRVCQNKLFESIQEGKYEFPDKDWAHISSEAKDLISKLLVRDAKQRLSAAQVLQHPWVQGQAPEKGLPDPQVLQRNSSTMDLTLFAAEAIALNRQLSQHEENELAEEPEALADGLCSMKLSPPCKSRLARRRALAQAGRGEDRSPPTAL

IC50 (MKNK1 [1]; Table 1a) [nM]	IC50 (MKNK1 [2]; Table 2a) [nM]	IC50 (MKNK1 [1]; Table 1b) [nM]	IC50 (MKNK1 [2]; Table 2b) [nM]	Compound
7.3	14.9	–	–	O=C(NCCOc1ccc2ncc(-c3cc4ccccc4o3)n2n1)C1CCOCC1 [Example I-66, N-(2-{[3-(1-Benzofuran-2-yl)imidazo[1,2-b]-pyridazin-6-yl]oxy}ethyl)tetrahydro-2H-pyran-4-carboxamide]
6.6	20.3	–	–	O=C(CO)NCCOc1ccc2ncc(-c3cc4ccccc4o3)n2n1 [Example I-67, N-(2-{[3-(1-Benzofuran-2-yl)imidazo[1,2-b]-pyridazin-6-yl]oxy}ethyl)-2-hydroxyacetamide]
7.8	20.6	–	–	O=C(NCCOc1ccc2ncc(-c3cc4ccccc4o3)n2n1)C1CCC1 [Example I-68, N-(2-{[3-(1-Benzofuran-2-yl)imidazo[1,2-b]-pyridazin-6-yl]oxy}ethyl)cyclobutane-carboxamide]
13.7	36.9	–	–	Cc1cccc(C(=O)NCCOc2ccc3ncc(-c4cc5ccccc5o4)n3n2)c1 [Example I-69, N-(2-{[3-(1-Benzofuran-2-yl)imidazo[1,2-b]-pyridazin-6-yl]oxy}ethyl)-3-methylbenzamide]
15.1	45.8	–	–	O=C(NCCOc1ccc2ncc(-c3cc4ccccc4o3)n2n1)c1ccccn1 [Example I-70, N-(2-{[3-(1-Benzofuran-2-yl)imidazo[1,2-b]-pyridazin-6-yl]oxy}ethyl)pyridine-2-carboxamide]
4.6	14.4	–	–	Cc1ccccc1C(=O)NCCOc1ccc2ncc(-c3cc4ccccc4o3)n2n1 [Example I-71, N-(2-{[3-(1-Benzofuran-2-yl)imidazo[1,2-b]-pyridazin-6-yl]oxy}ethyl)-2-methylbenzamide]
4.8	14.7	–	–	CC(C)CC(=O)NCCOc1ccc2ncc(-c3cc4ccccc4o3)n2n1 [Example I-72, N-(2-{[3-(1-Benzofuran-2-yl)imidazo[1,2-b]-pyridazin-6-yl]oxy}ethyl)-3-methylbutanamide]
5.6	16.5	–	–	CCC(C)C(=O)NCCOc1ccc2ncc(-c3cc4ccccc4o3)n2n1 (stereo not shown) [Example I-73, N-(2-{[3-(1-Benzofuran-2-yl)imidazo[1,2-b]-pyridazin-6-yl]oxy}ethyl)-2-methylbutanamide]
5.4	16.7	–	–	CCCCC(=O)NCCOc1ccc2ncc(-c3cc4ccccc4o3)n2n1 [Example I-74, N-(2-{[3-(1-Benzofuran-2-yl)imidazo[1,2-b]-pyridazin-6-yl]oxy}ethyl)pentanamide]
6	17.7	–	–	O=C(Cc1ccccc1)NCCOc1ccc2ncc(-c3cc4ccccc4o3)n2n1 [Example I-75, N-(2-{[3-(1-Benzofuran-2-yl)imidazo[1,2-b]-pyridazin-6-yl]oxy}ethyl)-2-phenylacetamide]
7.3	21.1	–	–	O=C(CC1CC1)NCCOc1ccc2ncc(-c3cc4ccccc4o3)n2n1 [Example I-76, N-(2-{[3-(1-Benzofuran-2-yl)imidazo[1,2-b]-pyridazin-6-yl]oxy}ethyl)-2-cyclopropylacetamide]
7.9	22.2	–	–	O=C(NCCOc1ccc2ncc(-c3cc4ccccc4o3)n2n1)c1ccco1 [Example I-77, N-(2-{[3-(1-Benzofuran-2-yl)imidazo[1,2-b]-pyridazin-6-yl]oxy}ethyl)furan-2-carboxamide]
6.7	23	–	–	O=C(NCCOc1ccc2ncc(-c3cc4ccccc4o3)n2n1)C1CCCO1 (stereo not shown) [Example I-78, N-(2-{[3-(1-Benzofuran-2-yl)imidazo[1,2-b]-pyridazin-6-yl]oxy}ethyl)tetrahydrofuran-2-carboxamide]
10.1	25.5	–	–	Cn1ccc(C(=O)NCCOc2ccc3ncc(-c4cc5ccccc5o4)n3n2)n1 [Example I-79, N-(2-{[3-(1-Benzofuran-2-yl)imidazo[1,2-b]-pyridazin-6-yl]oxy}ethyl)-1-methyl-1H-pyrazole-3-carboxamide]
24.5	47.7	–	–	CC(=O)NC[C@@H](C)Oc1ccc2ncc(-c3cc4ccccc4o3)n2n1 [Example I-80, N-[(2R)-2-{[3-(1-Benzofuran-2-yl)imidazo[1,2-b]pyridazin-6-yl]oxy}-propyl]acetamide]
–	–	8.5	20	c1cc(N2CCOCC2)c2cc(-c3cnc4ccc(OC[C@H]5CNCCO5)nn34)oc2c1 [II-1, 3-[4-(Morpholin-4-yl)-1-benzofuran-2-yl]-6-[(2R)-morpholin-2-ylmethoxy]-imidazo[1,2-b]pyridazine]

IC50 (MKNK1 [1]; Table 1a) [nM]	IC50 (MKNK1 [2]; Table 2a) [nM]	IC50 (MKNK1 [1]; Table 1b) [nM]	IC50 (MKNK1 [2]; Table 2b) [nM]	Compound
–	–	16	36	C[C@H](N)COc1ccc2ncc(-c3cc4c(N5CCOCC5)cccc4o3)n2n1 [II-2, (2S)-1-({3-[4-(Morpholin-4-yl)-1-benzofuran-2-yl]imidazo[1,2-b]pyridazin-6-yl}oxy)propan-2-amine]
–	–	110	196	CC(C)(C)OC(=O)N[C@H]1C[C@H](Oc2ccc3ncc(-c4cc5c(N6CCOCC6)cccc5o4)n3n2)C1 [II-3, tert-Butyl [trans-3-({3-[4-(morpholin-4-yl)-1-benzofuran-2-yl]imidazo[1,2-b]-pyridazin-6-yl}oxy)cyclobutyl]carbamate]
–	–	18	28	N[C@H]1C[C@H](Oc2ccc3ncc(-c4cc5c(N6CCOCC6)cccc5o4)n3n2)C1 [II-4, trans-3-({3-[4-(Morpholin-4-yl)-1-benzofuran-2-yl]imidazo[1,2-b]pyridazin-6-yl}oxy)cyclobutanamine]
–	–	15	27	O=C1CC[C@H](COc2ccc3ncc(-c4cc5c(N6CCOCC6)cccc5o4)n3n2)N1 [II-5, (5R)-5-[({3-[4-(Morpholin-4-yl)-1-benzofuran-2-yl]imidazo[1,2-b]pyridazin-6-yl}oxy)methyl]pyrrolidin-2-one]
–	–	7.1	14	COC[C@H]1CCCN1c1cccc2oc(-c3cnc4ccc(OCCCS(C)(=O)=O)nn34)cc12 [II-6, 3-{4-[(2R)-2-(Methoxymethyl)pyrrolidin-1-yl]-1-benzofuran-2-yl}-6-[3-(methyl-sulfonyl)propoxy]imidazo[1,2-b]pyridazine]
–	–	6.3	4.2	COC[C@H]1CCCN1c1cccc2oc(-c3cnc4ccc(OC[C@H]5CNCCO5)nn34)cc12 [II-7, 3-{4-[(2R)-2-(Methoxymethyl)pyrrolidin-1-yl]-1-benzofuran-2-yl}-6-[(2R)-morpholin-2-ylmethoxy]imidazo[1,2-b]pyridazine]
–	–	2	2.7	COC[C@H]1CCCN1c1cccc2oc(-c3cnc4ccc(OC[C@H](C)N)nn34)cc12 [II-8, (2S)-1-[(3-{4-[(2R)-2-(Methoxymethyl)pyrrolidin-1-yl]-1-benzofuran-2-yl}-imidazo[1,2-b]pyridazin-6-yl)oxy]propan-2-amine]
–	–	0.8	0.6	COC[C@H]1CCCN1c1cccc2oc(-c3cnc4ccc(OC[C@H]5CCC(=O)N5)nn34)cc12 [II-9, (5R)-5-{[(3-{4-[(2R)-2-(Methoxymethyl)pyrrolidin-1-yl]-1-benzofuran-2-yl}imidazo[1,2-b]pyridazin-6-yl)oxy]methyl}pyrrolidin-2-one]
–	–	6.5	5	COC[C@H]1CCCN1c1cccc2oc(-c3cnc4ccc(OC)nn34)cc12 [II-10, 6-Methoxy-3-{4-[(2R)-2-(methoxymethyl)pyrrolidin-1-yl]-1-benzofuran-2-yl}-imidazo[1,2-b]pyridazine]
–	–	2.4	3.5	COC[C@H]1CCCN1c1cccc2oc(-c3cnc4ccc(O[C@H]5C[C@H](N)C5)nn34)cc12 [II-11, trans-3-[(3-{4-[(2R)-2-(Methoxymethyl)pyrrolidin-1-yl]-1-benzofuran-2-yl}imidazo[1,2-b]pyridazin-6-yl)oxy]cyclobutanamine]
–	–	24	67	CS(=O)(=O)CCCOc1ccc2ncc(-c3cc4c(N5CCN(c6ccccc6)CC5)cccc4o3)n2n1 [II-12, 6-[3-(Methylsulfonyl)propoxy]-3-[4-(4-phenylpiperazin-1-yl)-1-benzofuran-2-yl]-imidazo[1,2-b]pyridazine]
–	–	39	58	c1cc(N2CCOCC2)c2cc(-c3cnc4ccc(O[C@@H]5CCNC5)nn34)oc2c1 [II-13, 3-[4-(Morpholin-4-yl)-1-benzofuran-2-yl]-6-[(3R)-pyrrolidin-3-yloxy]imidazo[1,2-b]pyridazine]
–	–	7	27	O=C1CC[C@H](COc2ccc3ncc(-c4cc5c(N6CCN(c7ccccc7)CC6)cccc5o4)n3n2)N1 [II-14, (5R)-5-[({3-[4-(4-Phenylpiperazin-1-yl)-1-benzofuran-2-yl]imidazo[1,2-b]-pyridazin-6-yl}oxy)methyl]pyrrolidin-2-one]
–	–	59	137	C[C@H](N)COc1ccc2ncc(-c3cc4c(N5CCN(c6ccccc6)CC5)cccc4o3)n2n1 [II-15, (2S)-1-({3-[4-(4-Phenylpiperazin-1-yl)-1-benzofuran-2-yl]imidazo[1,2-b]-pyridazin-6-yl}oxy)propan-2-amine]
–	–	13	15	N[C@H]1C[C@H](Oc2ccc3ncc(-c4cc5c(N6CCN(c7ccccc7)CC6)cccc5o4)n3n2)C1 [II-16, trans-3-({3-[4-(4-Phenylpiperazin-1-yl)-1-benzofuran-2-yl]imidazo[1,2-b]-pyridazin-6-yl}oxy)cyclobutanamine]
–	–	0.6	0.5	CCN(CCOC)c1cccc2oc(-c3cnc4ccc(OC[C@H]5CCC(=O)N5)nn34)cc12 [II-17, (5R)-5-{[(3-{4-[Ethyl(2-methoxyethyl)amino]-1-benzofuran-2-yl}imidazo[1,2-b]-pyridazin-6-yl)oxy]methyl}pyrrolidin-2-one]
